Values of other authors in patent US20050042240A1, “High viscosity antibacterials” (priority 2002, published 2005).

Settings: chronic catheter lock context

SMILES: CC(C)O [isopropyl alcohol]
- daily dose above which toxic symptoms can arise: > 500 mg
